In patent US9012428B2, “Uracyl spirooxetane nucleoside phosphoramidates” (Janssen Products, LP, priority 2010, dated 2015):

Columns and labels:
[1] = Cytotoxicity in Huh-7 cells; type: cell-based; settings: human
Experimental: (§1) The in vitro antiviral activity against HCV of the compound of formula I was tested in a cellular HCV replicon system based on Lohmann et al. (1999) Science 285:110-113, with the further modifications described by Krieger et al. (2001) Journal of Virology 75: 4614-4624 (incorporated herein by reference), which is further exemplified in the examples section. This model, while not a complete infection model for HCV, is widely accepted as the most robust and efficient model of autonomous HCV RNA replication currently available. It will be appreciated that it is important to distinguish between compounds that specifically interfere with HCV functions from those that exert cytotoxic or cytostatic effects in the HCV replicon model, and as a consequence cause a decrease in HCV RNA or linked reporter enzyme concentration. Assays are known in the field for the evaluation of cellular cytotoxicity based for example on the activity of mitochondrial enzymes using fluorogenic redox dyes such as resazurin. Furthermore, cellular counter screens exist for the evaluation of non-selective inhibition of linked reporter gene activity, such as firefly luciferase. […]

HCV type 1b replicon = assay: HCV replicon assay (Huh-Luc, luciferase readout); type: cell-based; settings: Hepatitis C virus, 72 h; Huh-Luc replicon cells, three days incubation, luciferase activity
Experimental: as §1, with “concentration.” for “concentration. Assays are known in the field for the evaluation of cellular cytotoxicity based for example on the activity of mitochondrial enzymes using fluorogenic redox dyes such as resazurin. Furthermore, cellular counter screens exist for the evaluation of non-selective inhibition of linked reporter gene activity, such as firefly luciferase.”
The replicon cells were plated in 384-well plates in the presence of the test and control compounds which were added in various concentrations. Following an incubation of three days, HCV replication was measured by assaying luciferase activity (using standard luciferase assay substrates and reagents and a Perkin Elmer ViewLux™ ultraHTS microplate imager). […] The inhibitory activity of the compound on luciferase activity was monitored on the Huh-Luc cells, enabling a dose-response curve for the test compound. […]

HIV = settings: literature report; cited from earlier work

In the case of `CCCCOC(=O)[C@H](C)N[P@](=O)(OC[C@H]1O[C@@H](n2ccc(=O)[nH]c2=O)[C@@]2(CCO2)[C@@H]1O)Oc1ccccc1` [Compound P1, butyl N—[(S)-{[(4R,5R,7R,8R)-5-(2,4-dioxo-3,4-dihydro-pyrimidin-1(2H)-yl)-8-hydroxy-1,6-dioxaspiro[3.4]oct-7-yl]methoxy}(phenoxy)-phosphoryl]-L-alaninate], the CC50 [1] is reported as over 98 µM and the EC50 (HCV type 1b replicon) is reported as 2.51 µM.
In the case of `Cc1cn([C@@H]2O[C@H](CO)[C@@H](O)[C@]23CCO3)c(=O)[nH]c1=O` [1-(2-O,2-C-ethano-β-D-ribofuranosyl)thymine], the “activity against HIV” value (HIV) is listed as “no activity was found”.
In the case of `O=c1ccn([C@@H]2O[C@H](CO)[C@@H](O)[C@]23CCO3)c(=O)[nH]1` [1-(2-O,2-C-ethano-β-D-ribofuranosyl)uracil], the “activity against HIV” value (HIV) is given as “no activity was found”.
